Source: ChEMBL document CHEMBL1201862, “PubChem BioAssay data set” (2004)
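Test compounds were applied to cells in 96-well plates for 48 hours at 5 doses. At the GI50, growth is halved.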 Activity calls are given as the source filed them. No stated cut-off is given here; in the data, active = GI50 up to about 1.1 µM and inactive = higher.

Assays:
Experiment in all cases: NCI anticancer screen, dose series, 48 h
SF-539 = tested on: SF-539
SF-295 = tested on: SF-295
NCI-H23 = tested on: NCI-H23
SN12C = tested on: SN12C
DMS-273 = tested on: DMS-273
LXFL 529 = tested on: LXFL 529
OVCAR-8 = tested on: OVCAR-8
M19-MEL = tested on: M19-MEL
SF-268 = tested on: SF-268
IGROV-1 = tested on: IGROV-1
HL-60 = tested on: HL-60
SW-620 = tested on: SW-620
KM12 = tested on: KM12
ACHN = tested on: ACHN
Malme-3M = tested on: Malme-3M
SK-MEL-28 = tested on: SK-MEL-28
A498 = tested on: A498
CCRF-CEM = tested on: CCRF-CEM
LOX IMVI = tested on: LOX IMVI
OVCAR-3 = tested on: OVCAR-3
HCT-15 = tested on: HCT-15
HT-29 = tested on: HT-29
SNB-78 = tested on: SNB-78
OVCAR-4 = tested on: OVCAR-4
MOLT-4 = tested on: MOLT-4
DMS-114 = tested on: DMS-114
SNB-75 = tested on: SNB-75
A549 = tested on: A549
UACC-257 = tested on: UACC-257
K562 = tested on: K562
NCI-H226 = tested on: NCI-H226
TK-10 = tested on: TK-10
HOP-18 = tested on: HOP-18
M14 = tested on: M14
NCI-H460 = tested on: NCI-H460
UACC-62 = tested on: UACC-62
SK-MEL-2 = tested on: SK-MEL-2
SK-MEL-5 = tested on: SK-MEL-5
RXF 393 = tested on: RXF 393
HCT-116 = tested on: HCT-116
DLD-1 = tested on: DLD-1
HOP-62 = tested on: HOP-62
COLO 205 = tested on: COLO 205
HOP-92 = tested on: HOP-92
SK-OV-3 = tested on: SK-OV-3
786-0 = tested on: 786-0
EKVX = tested on: EKVX
RPMI-8226 = tested on: RPMI-8226
NCI-H522 = tested on: NCI-H522
UO-31 = tested on: UO-31
CAKI-1 = tested on: CAKI-1
U-251 = tested on: U-251
HCC 2998 = tested on: HCC 2998
KM-20L2 = tested on: KM-20L2
OVCAR-5 = tested on: OVCAR-5

CC1(C)OC(COP2OCCO2)[C@H](COP2OCCO2)O1 (stereo partly specified)
GI50 (SF-539): > 100 µM (inactive) | GI50 (SF-295): > 100 µM (inactive) | GI50 (NCI-H23): > 100 µM (inactive) | GI50 (SN12C): > 100 µM (inactive) | GI50 (DMS-273): > 100 µM (inactive) | GI50 (LXFL 529): > 100 µM (inactive) | GI50 (OVCAR-8): > 100 µM (inactive) | GI50 (M19-MEL): > 100 µM (inactive) | GI50 (SF-268): > 100 µM (inactive) | GI50 (IGROV-1): 31 µM (inactive) | GI50 (HL-60): > 100 µM (inactive) | GI50 (SW-620): > 100 µM (inactive) | GI50 (KM12): > 100 µM (inactive) | GI50 (ACHN): > 100 µM (inactive) | GI50 (Malme-3M): > 100 µM (inactive) | GI50 (SK-MEL-28): > 100 µM (inactive) | GI50 (A498): > 100 µM (inactive) | GI50 (CCRF-CEM): > 100 µM (inactive) | GI50 (LOX IMVI): > 100 µM (inactive) | GI50 (OVCAR-3): > 100 µM (inactive) | GI50 (HCT-15): > 100 µM | GI50 (HT-29): > 100 µM (inactive) | GI50 (SNB-78): > 100 µM (inactive) | GI50 (OVCAR-4): > 100 µM (inactive) | GI50 (MOLT-4): > 100 µM (inactive) | GI50 (DMS-114): > 100 µM (inactive) | GI50 (SNB-75): > 100 µM (inactive) | GI50 (A549): > 100 µM (inactive) | GI50 (UACC-257): > 100 µM (inactive) | GI50 (K562): > 100 µM (inactive) | GI50 (NCI-H226): > 100 µM (inactive) | GI50 (TK-10): > 100 µM (inactive) | GI50 (HOP-18): > 100 µM (inactive) | GI50 (M14): > 100 µM (inactive) | GI50 (NCI-H460): > 100 µM (inactive) | GI50 (UACC-62): > 100 µM (inactive) | GI50 (SK-MEL-2): > 100 µM (inactive) | GI50 (SK-MEL-5): > 100 µM (inactive) | GI50 (RXF 393): > 100 µM (inactive) | GI50 (HCT-116): > 100 µM (inactive)

C[N+](C)=c1[nH]c2ccccc2[nH]1
GI50 (DLD-1): > 100 µM (inactive) | GI50 (SF-539): > 100 µM (inactive) | GI50 (SF-295): > 100 µM (inactive) | GI50 (NCI-H23): > 100 µM (inactive) | GI50 (SN12C): > 100 µM (inactive) | GI50 (DMS-273): > 100 µM (inactive) | GI50 (LXFL 529): > 100 µM (inactive) | GI50 (OVCAR-8): > 100 µM (inactive) | GI50 (HOP-62): > 100 µM (inactive) | GI50 (M19-MEL): > 100 µM (inactive) | GI50 (COLO 205): > 100 µM (inactive) | GI50 (HOP-92): > 100 µM (inactive) | GI50 (SF-268): > 100 µM (inactive) | GI50 (IGROV-1): > 100 µM (inactive) | GI50 (HL-60): > 100 µM (inactive) | GI50 (SW-620): > 100 µM (inactive) | GI50 (KM12): > 100 µM (inactive) | GI50 (ACHN): > 100 µM (inactive) | GI50 (Malme-3M): > 100 µM (inactive) | GI50 (SK-MEL-28): > 100 µM (inactive) | GI50 (CCRF-CEM): > 100 µM (inactive) | GI50 (SK-OV-3): > 100 µM (inactive) | GI50 (LOX IMVI): > 100 µM (inactive) | GI50 (786-0): > 100 µM (inactive) | GI50 (OVCAR-3): > 100 µM (inactive) | GI50 (HCT-15): > 100 µM | GI50 (HT-29): > 100 µM (inactive) | GI50 (OVCAR-4): > 100 µM (inactive) | GI50 (EKVX): > 100 µM (inactive) | GI50 (MOLT-4): > 100 µM (inactive) | GI50 (DMS-114): > 100 µM (inactive) | GI50 (SNB-75): 24.3 µM (inactive) | GI50 (RPMI-8226): > 100 µM (inactive) | GI50 (A549): > 100 µM (inactive) | GI50 (UACC-257): > 100 µM (inactive) | GI50 (K562): > 100 µM (inactive) | GI50 (NCI-H522): > 100 µM (inactive) | GI50 (UO-31): > 100 µM (inactive) | GI50 (TK-10): > 100 µM (inactive) | GI50 (HOP-18): > 100 µM (inactive) | GI50 (CAKI-1): > 100 µM (inactive) | GI50 (U-251): > 100 µM (inactive) | GI50 (M14): > 100 µM (inactive) | GI50 (NCI-H460): > 100 µM (inactive) | GI50 (HCC 2998): > 100 µM (inactive) | GI50 (UACC-62): > 100 µM (inactive) | GI50 (SK-MEL-2): > 100 µM (inactive) | GI50 (KM-20L2): > 100 µM (inactive) | GI50 (OVCAR-5): > 100 µM (inactive) | GI50 (SK-MEL-5): > 100 µM (inactive) | GI50 (RXF 393): > 100 µM (inactive)
